Measurements from patent US20230414622A1, “PHARMACEUTICAL METHOTREXATE COMPOSITION” (Leopold MTX GmbH, priority 2020, published 2023).
Where two headings read alike, the source gives them in different places.

Tests used:
[1] = Thermal unfolding profiles (Tycho NT.6 fluorimeter): temperature stability of the biologic with or without MTX; format: physicochemical
Source text: To prepare the compositions according to the invention, the biologics were combined with methotrexate disodium at concentrations of 25 milligrams per milliliter, 16.6 milligrams per milliliter, 10.0 milligrams per milliliter, 7.14 milligrams per milliliter, and 5.0 milligrams per milliliter, respectively. Phosphate buffered saline (PBS buffer) pH 7.5 was used as the solvent. As reference composition in each case served the biopharmaceutical in equivalent concentration in PBS buffer pH 7.5 without the addition of methotrexate disodium.
In each case, the above-noted concentrations were the final concentration of the biopharmaceutical or the methotrexate in the pharmaceutical composition.
After 20 days of incubation, the compositions were measured using a Tycho NT.6 fluorimeter (NanoTemper Technologies, Munich, Germany) according to the manufacturer's instructions to determine the thermal unfolding profiles of the biologics.
The inflection point of each curve indicates the denaturation temperature of the biopharmaceutical in the composition.

TNF-α = molecular target: T1, TNF-α (Homo sapiens, UniProt P01375); assay: Microscale thermophoresis (MST) binding affinity to Cy5-labelled recombinant TNF-α; settings: for Kd: PBS pH 7.5, 25° C., mean of six independent test series
T1 construct: purchased Acrobiosystems, USA
Experimental: (§1) In addition to thermodynamic stability, the binding affinity of the biopharmaceuticals in compositions according to the present invention was determined and compared with the binding affinity in corresponding reference compositions.
(§2) Binding studies were performed using microscale thermophoresis (MST) with the Monolith NT.115 device (NanoTemper Technologies, Munich, Germany).
(§3) For the MST measurements, 10 microliters each of the biopharmaceutical at a concentration of […] were mixed with 10 microliters each of a serial dilution of methotrexate disodium in PBS buffer pH 7.5 to prepare the compositions according to the invention. The final concentration of MTX in all samples was 55 micromoles per liter, while the concentration of the respective ligand ranged from 1.5 micromoles per liter to 25 millimoles per liter.
(§4) Samples were loaded into coated capillaries (NanoTemper Technologies) according to the manufacturer's instructions and fluorescence was recorded for 20 seconds at 100% laser power and 40% MST power. The temperature of the instrument was set at 25° C. for all measurements. After the recordal of MST time traces, the data were analyzed. The equilibrium dissociation constant (KD) was determined based on the change in normalized fluorescence as a function of the concentration of the corresponding ligand after 14 seconds of thermophoresis using MO affinity analysis software (NanoTemper Technologies).
(§5) The values shown are the arithmetic mean values from six independent test series in each case.

CD80 = assay: Microscale thermophoresis (MST) binding affinity to Cy5-labelled recombinant CD80; settings: for Kd: PBS pH 7.5, 25° C., mean of six independent test series
Experimental: as §1, §2
Recombinant TNF-α, CD20, and CD80 (Acrobiosystems, USA) were labeled for MST measurements using the fluorescent dye Cy5 (Thermo Fisher Scientific, Germany) according to the manufacturer's instructions. The concentration of the recombinant proteins was measured after labeling using a UV-Vis spectrophotometer, and a labeling efficiency of 80 was determined.
as §3, §4, §5

[2] = molecular target: T2, Recombinant CD20 (Acrobiosystems), Cy5-labelled (UniProt P11836 1-297, limits assumed, labelled with fluorescent dye Cy5 (site not stated)); assay: microscale thermophoresis; KD with MTX against the reference without MTX
T2 construct: Bought recombinant protein; construct not described; also called B-lymphocyte antigen CD20
T2 sequence (looked up): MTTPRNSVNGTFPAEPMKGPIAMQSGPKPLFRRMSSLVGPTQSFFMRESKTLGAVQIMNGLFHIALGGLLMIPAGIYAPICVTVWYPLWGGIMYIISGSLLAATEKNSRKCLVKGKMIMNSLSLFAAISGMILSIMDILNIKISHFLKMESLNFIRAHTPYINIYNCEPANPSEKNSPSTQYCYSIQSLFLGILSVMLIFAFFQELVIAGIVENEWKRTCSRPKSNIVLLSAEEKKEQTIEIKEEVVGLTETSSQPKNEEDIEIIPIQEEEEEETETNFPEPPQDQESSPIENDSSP

[3] = molecular target: T2, Recombinant CD20 (Acrobiosystems), …; assay: microscale thermophoresis, Cy5-labelled CD20, PBS pH 7.5, 25 °C, reference without MTX; mean of six series
[4] = molecular target: T2, Recombinant CD20 (Acrobiosystems), …; assay: microscale thermophoresis, Cy5-labelled CD20, PBS pH 7.5, 25 °C, with methotrexate disodium; mean of six series
[5] = MTX 55 micromoles per liter, read-out: KD with MTX
[6] = read-out: KD without MTX (reference)

T1 sequence (P01375 77-233 limits assumed): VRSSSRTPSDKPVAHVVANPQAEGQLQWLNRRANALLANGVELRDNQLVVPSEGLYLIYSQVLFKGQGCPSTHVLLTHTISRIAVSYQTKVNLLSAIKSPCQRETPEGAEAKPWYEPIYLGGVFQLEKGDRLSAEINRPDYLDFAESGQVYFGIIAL
CD80, sequence (P33681 35-288): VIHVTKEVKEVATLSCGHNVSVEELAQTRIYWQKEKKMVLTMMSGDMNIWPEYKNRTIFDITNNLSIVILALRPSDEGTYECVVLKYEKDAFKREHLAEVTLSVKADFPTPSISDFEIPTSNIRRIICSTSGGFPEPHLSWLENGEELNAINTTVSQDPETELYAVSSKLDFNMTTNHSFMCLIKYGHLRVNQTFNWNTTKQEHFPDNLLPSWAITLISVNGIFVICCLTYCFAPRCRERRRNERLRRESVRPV

## Etanercept
[1]; MTX 5 milligrams per milliliter, PBS pH 7.5, 20 days of incubation
  temperature stability in composition with MTX: 74.3 °C
[1]; PBS buffer pH 7.5, without MTX, after 20 days of incubation
  denaturation temperature / temperature stability in reference composition without MTX: 73.9 °C
TNF-α; [5]
  Kd: 0.005 nM
TNF-α; [6]
  Kd: 0.0116 nM

## Rituximab: biologic that specifically binds B-lymphocyte antigen CD20 (trade names: MabThera, Rituxan)
CD80; [5]
  Kd: 6.8 nM
CD80; [6]
  Kd: 11.3 nM
CD80; with MTX vs without MTX
  Relative increase in binding strength: 66%

## Adalimumab
TNF-α; [5]
  Kd: 0.14 nM
TNF-α; [6]
  Kd: 0.147 nM
TNF-α; in words, the b130 statement covers all tested ligands (TNF-α, CD20, CD80)
  binding affinity / binding strength in composition with MTX compared to control without MTX: higher binding affinity
TNF-α; with MTX vs without MTX
  Relative increase in binding strength: 5%

B1: Rituximab (MabThera) (antibody, V domains shown)
VH: QVQLQQPGAELVKPGASVKMSCKASGYTFTSYNMHWVKQTPGRGLEWIGAIYPGNGDTSYNQKFKGKATLTADKSSSTAYMQLSSLTSEDSAVYYCARSTYYGGDWYFNVWGAGTTVTVSA
VL: QIVLSQSPAILSASPGEKVTMTCRASSSVSYIHWFQQKPGSSPKPWIYATSNLASGVPVRFSGSGSGTSYSLTISRVEAEDAATYYCQQWTSNPPTFGGGTKLEIK
[2]
  Relative increase in binding strength: 66%
[3]
  Kd: 11.3 nM
[4]
  Kd: 6.8 nM
